Our source for the EC50 and Ki values is ChEMBL document CHEMBL1128544, “2-[N'-(3-arylallylidene)hydrazino]adenosines showing A2a adenosine agonist properties and vasodilation activity” (J Med Chem, 1995).

Each structure is given as a SMILES string. A value given as a limit tells only on which side of the number the result lay.

The target in assay [1] is T1, Adenosine receptor A2a (Rattus norvegicus, UniProt P30543).
Description: Functional activity at Adenosine A2A receptor as vasorelaxation of rat aorta
Assay [2] addresses T1, Adenosine receptor A2a. The source holds these as a separate data set.
In assay [3] the target is T2, Adenosine receptor A1 (Rattus norvegicus, UniProt P25099).
T2 sequence (P25099 whole entry): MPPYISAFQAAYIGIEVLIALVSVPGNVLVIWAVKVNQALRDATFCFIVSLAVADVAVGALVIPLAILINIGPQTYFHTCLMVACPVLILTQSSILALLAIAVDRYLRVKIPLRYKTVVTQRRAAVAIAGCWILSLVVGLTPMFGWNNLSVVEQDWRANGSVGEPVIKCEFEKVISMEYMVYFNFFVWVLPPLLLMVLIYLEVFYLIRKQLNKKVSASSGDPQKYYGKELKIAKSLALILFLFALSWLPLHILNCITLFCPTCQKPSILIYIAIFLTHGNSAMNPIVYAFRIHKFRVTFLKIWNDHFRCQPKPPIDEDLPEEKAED
As to the kind of experiment: Activity at Adenosine A1 receptor of rat atria. The assay is classed as functional.

The target in assay [4] is T2, Adenosine receptor A1.
Description: Displacement of [3H]CHA from Adenosine A1 receptor of rat brain

T1 sequence (P30543 whole entry): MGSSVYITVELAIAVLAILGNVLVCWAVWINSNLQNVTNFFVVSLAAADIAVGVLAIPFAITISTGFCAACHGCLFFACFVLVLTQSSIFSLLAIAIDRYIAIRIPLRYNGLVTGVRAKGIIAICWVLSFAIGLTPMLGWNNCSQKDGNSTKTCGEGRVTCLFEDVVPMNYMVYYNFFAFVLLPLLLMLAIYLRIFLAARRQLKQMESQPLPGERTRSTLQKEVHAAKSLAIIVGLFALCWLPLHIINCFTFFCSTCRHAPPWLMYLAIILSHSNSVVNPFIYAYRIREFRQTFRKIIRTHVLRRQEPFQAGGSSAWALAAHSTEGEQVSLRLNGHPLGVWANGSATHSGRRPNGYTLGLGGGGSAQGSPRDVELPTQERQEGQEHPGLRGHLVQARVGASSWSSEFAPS

Turning to `Cc1ccc(/C=N/Nc2nc(N)c3ncn(C4O[C@H](CO)[C@@H](O)[C@H]4O)c3n2)cc1` (some centres undefined), the values for the EC50 at Adenosine receptor A2a [1] and on Adenosine receptor A1 [3] were 747 nM and above 10 µM, respectively. Besides, the Ki (in general, the equilibrium dissociation constant of an inhibitor or competing ligand from its target) at Adenosine receptor A2a [2] worked out at 29 nM; at Adenosine receptor A1 [4] it was 1770 nM.
For `Nc1nc(N/N=C/C=C(c2ccccc2)c2ccccc2)nc2c1ncn2[C@@H]1O[C@H](CO)[C@@H](O)[C@H]1O` the same measures were 704 nM, above 1.86 µM, above 1000 nM and 64 nM.
Taken in the same sequence, the figures for `Nc1nc(N/N=C/C=C/c2ccccc2)nc2c1ncn2[C@@H]1O[C@H](CO)[C@@H](O)[C@H]1O` were 269 nM, above 10 µM, 38 nM and 1050 nM.
For `Nc1nc(N/N=C/c2ccco2)nc2c1ncn2[C@@H]1O[C@H](CO)[C@@H](O)[C@H]1O` the same measures were 195 nM, above 10 µM, 42 nM and 1850 nM.
For `COc1cc(/C=C/C=N/Nc2nc(N)c3ncn([C@@H]4O[C@H](CO)[C@@H](O)[C@H]4O)c3n2)ccc1O`, the EC50 (in general, the concentration needed to bring the measured effect to its halfway point) on Adenosine receptor A2a [1] was 281 nM; on Adenosine receptor A1 [3], 4.89 µM. The values for the Ki on Adenosine receptor A2a [2] and at Adenosine receptor A1 [4] were 27 nM and 545 nM, respectively.
For `COc1ccccc1/C=C/C=N/Nc1nc(N)c2ncn([C@@H]3O[C@H](CO)[C@@H](O)[C@H]3O)c2n1` the same measures were 529 nM, 1.97 µM, 384 nM and 264 nM.
Taken in the same sequence, the figures for `Nc1nc(N/N=C/C=C/c2ccc([N+](=O)[O-])cc2)nc2c1ncn2[C@@H]1O[C@H](CO)[C@@H](O)[C@H]1O` were 482 nM, above 10 µM, 23 nM and 524 nM.
Consider `Nc1nc(N/N=C/C=C/c2ccccc2[N+](=O)[O-])nc2c1ncn2[C@@H]1O[C@H](CO)[C@@H](O)[C@H]1O`, for which the values for the EC50 at Adenosine receptor A2a [1] and on Adenosine receptor A1 [3] were 638 nM and above 10 µM, respectively. The Ki at Adenosine receptor A2a [2] amounted to 54 nM; on Adenosine receptor A1 [4] it was 935 nM.
Regarding `COc1ccc(/C=C/C=N/Nc2nc(N)c3ncn([C@@H]4O[C@H](CO)[C@@H](O)[C@H]4O)c3n2)cc1`, the figures for the EC50 at Adenosine receptor A2a [1] and on Adenosine receptor A1 [3] were 677 nM and above 10 µM, respectively. The Ki was 59 nM on Adenosine receptor A2a [2] and 425 nM at Adenosine receptor A1 [4].
For `Nc1nc(N/N=C/C=C/c2ccco2)nc2c1ncn2[C@@H]1O[C@H](CO)[C@@H](O)[C@H]1O` the same measures were 800 nM, 4.34 µM, 83 nM and 1670 nM.
For `CN(C)c1ccc(/C=C/C=N/Nc2nc(N)c3ncn([C@@H]4O[C@H](CO)[C@@H](O)[C@H]4O)c3n2)cc1` the same measures were 728 nM, 0.866 µM, 170 nM and 101 nM.
